The values below come from US20090131431A1, “Pyrazolo[3,4-b]pyridine compounds, and their use as a PDE4 inhibitors” (priority 2005, published 2009).

The assay deals with T1, PDE4B (human recombinant) (Homo sapiens, UniProt Q07343).
T1 construct: made in house
Briefly: Inhibition of PDE4B activity: SPA and/or Fluorescence Polarisation (FP) assay. The class given is biochemical. The settings on record: one reading (n=1) or average of 2 or more readings, read-out: PDE4B pIC50 (±about 0.5) (converted). A digest of the protocol: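 Human recombinant PDE4B activity measured by SPA with [3H]cAMP at about 10 nM, 1 h at ambient temperature, enzyme set for ≤20% substrate hydrolysis, or by IMAP FP with Fl-cAMP at about 40 nM, 40 min at ambient temperature under linear conditions. Inhibition curves fitted; values reported as pIC50.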
In general terms: Fluorescence polarisation rises when a labelled molecule tumbles more slowly, as on binding a larger partner.

T1 sequence (Q07343 1-564 isoform Q07343-2): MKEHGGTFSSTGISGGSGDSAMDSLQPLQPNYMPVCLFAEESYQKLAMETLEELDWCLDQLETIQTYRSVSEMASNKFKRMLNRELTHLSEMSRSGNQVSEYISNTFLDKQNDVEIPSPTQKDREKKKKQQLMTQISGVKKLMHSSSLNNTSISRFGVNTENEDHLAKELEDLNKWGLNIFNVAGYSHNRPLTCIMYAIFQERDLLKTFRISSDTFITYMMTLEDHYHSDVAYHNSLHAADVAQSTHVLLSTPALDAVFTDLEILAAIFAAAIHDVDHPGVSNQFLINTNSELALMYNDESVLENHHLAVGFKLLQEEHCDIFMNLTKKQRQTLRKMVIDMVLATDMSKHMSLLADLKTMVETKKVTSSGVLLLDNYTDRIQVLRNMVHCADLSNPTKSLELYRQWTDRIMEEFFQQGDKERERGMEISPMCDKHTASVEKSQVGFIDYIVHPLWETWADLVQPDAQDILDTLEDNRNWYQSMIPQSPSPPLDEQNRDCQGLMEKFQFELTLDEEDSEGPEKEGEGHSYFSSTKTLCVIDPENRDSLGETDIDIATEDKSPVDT

For `CCc1nc2c(cnn2CC)c(NC2CCOCC2)c1CNS(=O)(=O)Cc1ccccc1` [Example 169, N-{[1,6-diethyl-4-(tetrahydro-2H-pyran-4-ylamino)-1H-pyrazolo[3,4-b]pyridin-5-yl]methyl}-1-phenylmethanesulfonamide], the IC50 is 0.126 to 1 nM.
As to `CCn1ncc2c(NC3CCOCC3)c(CN3Cc4ccccc4C3=O)c(C)nc21` [Example 300, 2-{[1-ethyl-6-methyl-4-(tetrahydro-2H-pyran-4-ylamino)-1H-pyrazolo[3,4-b]pyridin-5-yl]methyl}-2,3-dihydro-1H-isoindol-1-one], the IC50 is 0.126 to 1 nM.
With `CCc1nc2c(cnn2CC)c(NC2CCN(C(N)=O)CC2)c1CNC(=O)c1ccc(C(C)(C)C)cc1` [Example 243, 4-({5-[({[4-(1-dimethylethyl)phenyl]carbonyl}amino)methyl]-1,6-diethyl-1H-pyrazolo[3,4-b]pyridin-4-yl}amino)-1-piperidinecarboxamide], the IC50 was 0.01 to 0.1 nM.
The same measure for `CCc1nc2c(cnn2CC)c(NC2CCOCC2)c1CNC(=O)c1ccc(F)cc1F` [Example 308, N-{[1,6-diethyl-4-(tetrahydro-2H-pyran-4-ylamino)-1H-pyrazolo[3,4-b]pyridin-5-yl]methyl}-2,4-difluorobenzamide]: 0.126 to 1 nM.
The result for `CCn1ncc2c(NC3CCOCC3)c(CNC(=O)c3ccc(C(N)=O)cc3)c(C)nc21` [Example 279, N-{[1-ethyl-6-methyl-4-(tetrahydro-2H-pyran-4-ylamino)-1H-pyrazolo[3,4-b]pyridin-5-yl]methyl}-1,4-benzenedicarboxamide] reads 0.126 to 1 nM.
Regarding `CCn1ncc2c(NC3CCOCC3)c(CNC(=O)c3ccccc3O)c(C)nc21` [Example 275, N-{[1-ethyl-6-methyl-4-(tetrahydro-2H-pyran-4-ylamino)-1H-pyrazolo[3,4-b]pyridin-5-yl]methyl}-2-hydroxybenzamide], the IC50 was 0.01 to 0.1 nM.
The result for `CCn1ncc2c(NC3CCN(C(N)=O)CC3)c(CNC(=O)c3ccc4c(c3)CCC4)c(C)nc21` [Example 271, 4-[(5-{[(2,3-dihydro-1H-inden-5-ylcarbonyl)amino]methyl}-1-ethyl-6-methyl-1H-pyrazolo[3,4-b]pyridin-4-yl)amino]-1-piperidinecarboxamide] reads 0.01 to 0.1 nM; that for `CCc1nc2c(cnn2CC)c(NC2CCOCC2)c1CN1Cc2ccc(F)cc2C1=O` [Example 315, 2-{[1,6-diethyl-4-(tetrahydro-2H-pyran-4-ylamino)-1H-pyrazolo[3,4-b]pyridin-5-yl]methyl}-6-fluoro-2,3-dihydro-1H-isoindol-1-one], 0.01 to 0.1 nM.
For `CCc1nc2c(cnn2CC)c(NC2CCOCC2)c1CNC(=O)c1coc(C)n1` [Example 310, N-{[1,6-diethyl-4-(tetrahydro-2H-pyran-4-ylamino)-1H-pyrazolo[3,4-b]pyridin-5-yl]methyl}-2-methyl-1,3-oxazole-4-carboxamide], the IC50 is 0.126 to 1 nM.
The result for `CCn1ncc2c(NC3CCOCC3)c(CNC(=O)c3ccccc3F)c(C)nc21` [Example 282, N-{[1-ethyl-6-methyl-4-(tetrahydro-2H-pyran-4-ylamino)-1H-pyrazolo[3,4-b]pyridin-5-yl]methyl}-2-fluorobenzamide] reads 0.126 to 1 nM; that for `CCc1nc2c(cnn2CC)c(NC2CCN(C(N)=O)CC2)c1CNC(=O)c1ccc(NC(C)=O)c2c1OCC2` [Example 304, 4-({5-[({[4-(acetylamino)-2,3-dihydro-1-benzofuran-7-yl]carbonyl}amino)methyl]-1,6-diethyl-1H-pyrazolo[3,4-b]pyridin-4-yl}amino)-1-piperidinecarboxamide], 0.01 to 0.1 nM.
The result for `CCc1nc2c(cnn2CC)c(NC2CCOCC2)c1CNC(=O)c1ccc(-n2cccc2)nc1` [Example 148, N-{[1,6-diethyl-4-(tetrahydro-2H-pyran-4-ylamino)-1H-pyrazolo[3,4-b]pyridin-5-yl]methyl}-6-(1H-pyrrol-1-yl)-3-pyridinecarboxamide] reads 0.01 to 0.1 nM.
`CCc1nc2c(cnn2CC)c(NC2CCN(C(N)=O)CC2)c1CNC(=O)c1ccc(N2CCOCC2)cc1` [Example 207, 4-({1,6-diethyl-5-[({[4-(4-morpholinyl)phenyl]carbonyl}amino)methyl]-1H-pyrazolo[3,4-b]pyridin-4-yl}amino)-1-piperidinecarboxamide]: the IC50 was 0.01 to 0.1 nM.
In the case of `CCc1nc2c(cnn2CC)c(NC2CCOCC2)c1CNC(=O)N1CCCCC1` [Example 290, N-{[1,6-diethyl-4-(tetrahydro-2H-pyran-4-ylamino)-1H-pyrazolo[3,4-b]pyridin-5-yl]methyl}-1-piperidinecarboxamide], the IC50 is 0.126 to 1 nM.
The result for `CCn1ncc2c(NC3CCOCC3)c(CNC(=O)c3csc(C(F)(F)F)n3)c(C)nc21` [Example 319, N-{[1-ethyl-6-methyl-4-(tetrahydro-2H-pyran-4-ylamino)-1H-pyrazolo[3,4-b]pyridin-5-yl]methyl}-2-(trifluoromethyl)-1,3-thiazole-4-carboxamide] reads 0.126 to 1 nM.
The result for `CCc1nc2c(cnn2CC)c(NC2CCN(C(N)=O)CC2)c1CNC(=O)c1ccc(NC(C)=O)cc1O` [Example 241, 4-({5-[({[4-(acetylamino)-2-hydroxyphenyl]carbonyl}amino)methyl]-1,6-diethyl-1H-pyrazolo[3,4-b]pyridin-4-yl}amino)-1-piperidinecarboxamide] reads 0.01 to 0.1 nM.
The result for `CCc1nc2c(cnn2CC)c(NC2CCOCC2)c1CNC(=O)c1ccco1` [Example 153, N-{[1,6-diethyl-4-(tetrahydro-2H-pyran-4-ylamino)-1H-pyrazolo[3,4-b]pyridin-5-yl]methyl}-2-furancarboxamide] reads 0.01 to 0.1 nM.
On to `CCc1nc2c(cnn2CC)c(NC2CCOCC2)c1CNC(=O)c1ccncc1F` [Example 231, N-{[1,6-diethyl-4-(tetrahydro-2H-pyran-4-ylamino)-1H-pyrazolo[3,4-b]pyridin-5-yl]methyl}-3-fluoro-4-pyridinecarboxamide], for which the IC50 was 0.126 to 1 nM.
`CCc1nc2c(cnn2CC)c(NC2CCN(C(N)=O)CC2)c1CNC(=O)c1ccccc1F` [Example 246, 4-{[1,6-diethyl-5-({[(2-fluorophenyl)carbonyl]amino}methyl)-1H-pyrazolo[3,4-b]pyridin-4-yl]amino}-1-piperidinecarboxamide]: the IC50 is 0.01 to 0.1 nM.
Regarding `CCn1ncc2c(NC3CCOCC3)c(CNC(=O)c3ccc(C(C)C)cc3)c(C)nc21` [Example 278, N-{[1-ethyl-6-methyl-4-(tetrahydro-2H-pyran-4-ylamino)-1H-pyrazolo[3,4-b]pyridin-5-yl]methyl}-4-(1-methylethyl)benzamide], the IC50 was 0.01 to 0.1 nM.
On to `CCn1ncc2c(NC3CCN(C(N)=O)CC3)c(CNC(=O)c3ccc(C(C)(C)C)cc3O)c(C)nc21` [Example 272, 4-({5-[({(4-(1,1-dimethylethyl)-2-hydroxyphenyl]carbonyl}amino)methyl}-1-ethyl-6-methyl-1H-pyrazolo[3,4-b]pyridin-4-yl)amino}-1-piperidinecarboxamide], for which the IC50 is 0.01 to 0.1 nM.
For the compound `CCc1nc2c(cnn2CC)c(NC2CCOCC2)c1CNC(=O)c1cc(S(=O)(=O)N(CC)CC)ccc1OC` [Example 185, 5-[(diethylamino)sulfonyl]-N-{[1,6-diethyl-4-(tetrahydro-2H-pyran-4-ylamino)-1H-pyrazolo[3,4-b]pyridin-5-yl]methyl}-2-(methyloxy)benzamide], the IC50 is 0.01 to 0.1 nM.
